Laboratory results as given in patent US4348393A, “N-Aryl oxazolidinones, oxazolidinethiones, pyrrolidinones, pyrrolidines and thiazolidinones” (Delalande S.A., priority 1978, dated 1982).
Like-named read-outs stand apart in the source and are kept apart here.

What was measured:
[1] = tested on: generalized trembling caused by dl-5-hydroxytryptophane; test: Test A: potentiation in mice of generalized trembling caused by dl-5-hydroxytryptophane; type: in vivo; details: Mus musculus, po, read-out: Test A ED 50
Experimental: Test A: Potentiation in mice of generalized trembling caused by an interperitoneal injection (200 mg/kg) of dl-5-hydroxytryptophane, following the protocol described by C. GOURET and G. RAYNAUD in J. Pharmacol. (Paris), (1974), 5, 231.

[2] = tested on: ptosis observed one hour after reserpine; test: Test B: antagonism of reserpine-induced ptosis in mice; type: in vivo; details: Mus musculus, 1 h, po, antagonism of ptosis one hour after reserpine 2 mg/kg intravenous, read-out: Test B ED 50
Experimental: Test B: Antagonism with respect to the ptosis observed one hour after an intravenous injection (2 mg/kg) of reserpine given to mice, following the protocol described by C.

[3] = Toxicity LD50 mouse; details: in vivo, po, read-out: Toxicity LD 50
[4] = mice, potentiation of trembling by dl-5-hydroxytryptophane 200 mg/kg interperitoneal

| SMILES | ED50 [1, 4] | ED50 [2] | LD50 [3] | ED50 [1] |
| --- | --- | --- | --- | --- |
| CCOCC1CN(c2ccc(OCc3cccc([N+](=O)[O-])c3)cc2)C(=S)O1 (stereo not shown) [compound 216] | 5 mg/kg | 3 mg/kg | 1000 mg/kg |  |
| OCC1CCN(c2ccc(OCc3ccccc3)cc2)C1 (stereo not shown) [compound 220, N-parabenzyloxyphenyl hydroxymethyl-3 pyrrolidine] | 50 mg/kg | 50 mg/kg | > 1000 mg/kg |  |
| COCC1CN(c2ccc(OCCCCCl)cc2)C(=O)O1 (stereo not shown) [compound 234] | 0.6 mg/kg | 4 mg/kg | > 1000 mg/kg |  |
| COCC1CN(c2ccc(/C=C/c3cccc(Cl)c3)cc2)C(=O)O1 (stereo not shown) [compound 190] | 1 mg/kg | 0.23 mg/kg | > 1000 mg/kg |  |
| CC(C)NCC1CN(c2ccc(OCc3cccc([N+](=O)[O-])c3)cc2)C(=O)O1 (stereo not shown) [compound 201] | 7.4 mg/kg | 6.8 mg/kg | > 1000 mg/kg |  |
| CCC(=O)OCC1CN(c2ccc(OCc3ccccc3)cc2)C(=O)O1 (stereo not shown) [compound 24] | 9 mg/kg | 12.5 mg/kg | > 2000 mg/kg |  |
| CC(=O)OCC1CN(c2ccc(OCCC#N)cc2)C(=O)O1 (stereo not shown) [compound 3] | 3.1 mg/kg | 2.7 mg/kg | > 2000 mg/kg |  |
| COCC1CN(c2ccc(OCc3ccc(F)c([N+](=O)[O-])c3)cc2)C(=O)O1 (stereo not shown) [compound 169] | 3 mg/kg | 4.1 mg/kg | > 1000 mg/kg |  |
| COCC1CN(c2ccc(OCC3CCCC3)cc2)C(=O)O1 (stereo not shown) [compound 49] | 0.5 mg/kg | 0.4 mg/kg | 2000 mg/kg |  |
| COCC1CN(c2ccc(OCc3cc(C#N)cc([N+](=O)[O-])c3)cc2)C(=S)O1 (stereo not shown) [compound 218] | 7.2 mg/kg | 13.5 mg/kg | > 1000 mg/kg |  |
| O=C(COc1ccccc1)OCC1CN(c2ccc(OCc3cccc([N+](=O)[O-])c3)cc2)C(=O)O1 (stereo not shown) [compound 178] | 33 mg/kg | 28 mg/kg | > 1000 mg/kg |  |
| COCC1CN(c2ccc(OCc3ccc([N+](=O)[O-])c(Cl)c3)cc2)C(=O)O1 (stereo not shown) [compound 168] | 25 mg/kg | 16 mg/kg | > 1000 mg/kg |  |
| COCC1CN(c2ccc(/C=C/c3ccccc3)cc2)C(=O)O1 (stereo not shown) [compound 187] | 2.7 mg/kg | 1.3 mg/kg | > 1000 mg/kg |  |
| COCC1CN(c2ccc(-c3ccccc3)cc2)C(=O)O1 (stereo not shown) [compound 195] | 1.2 mg/kg | 2.2 mg/kg | > 1000 mg/kg |  |
| COCC1CN(c2ccc(N(C)C)cc2)C(=O)O1 (stereo not shown) [compound 180] | 7.4 mg/kg | 7.8 mg/kg | 1000 mg/kg |  |
| COCC1CN(c2ccc(OCC3=CCCC3)cc2)C(=O)O1 (stereo not shown) [compound 184] | 1.2 mg/kg | 0.72 mg/kg | > 1000 mg/kg |  |
| COCC1CN(c2ccc(OCC3CCCOC3)cc2)C(=O)O1 (stereo not shown) [compound 182] | 3.7 mg/kg | 5.8 mg/kg | > 1000 mg/kg |  |
| CCC(=O)OCC1CN(c2ccc(OCc3cccc(C#N)c3)cc2)C(=O)O1 (stereo not shown) [compound 132] | 3 mg/kg | 2 mg/kg | > 2000 mg/kg |  |
| O=C1CC(CO)CN1c1ccc(OCc2cccc([N+](=O)[O-])c2)cc1 (stereo not shown) [compound 99] | 50 mg/kg | 30 mg/kg | > 2000 mg/kg |  |
| COCC1CN(c2ccc(OCCN3CCOCC3)cc2)C(=O)O1 (stereo not shown) [compound 181] | 4 mg/kg | 9 mg/kg | > 1000 mg/kg |  |
| CNCC1CN(c2ccc(OCC3CCCC3)cc2)C(=O)O1 (stereo not shown) [compound 77] | 2.5 mg/kg | 6.2 mg/kg | > 2000 mg/kg |  |
| COCC1CN(c2ccc(OCc3cccnc3)cc2)C(=S)O1 (stereo not shown) [compound 213] | 3 mg/kg | 2 mg/kg | 1000 mg/kg |  |
| COCC1CN(c2ccc(OCC=C(C)C)cc2)C(=O)O1 (stereo not shown) [compound 185] | 12 mg/kg | 7 mg/kg | > 1000 mg/kg |  |
| CC(C)CCOc1ccc(N2CC(CO)OC2=S)cc1 (stereo not shown) [compound 91] |  | 5.5 mg/kg | > 2000 mg/kg | 4.5 mg/kg |
| O=[N+]([O-])c1cccc(COc2ccc(N3CC(CO)OC3=S)cc2)c1 (stereo not shown) [compound 94] | 1.5 mg/kg | 1 mg/kg | > 2000 mg/kg |  |
| O=C1OC(CN2CCOCC2)CN1c1ccc(OCc2cccc([N+](=O)[O-])c2)cc1 (stereo not shown) [compound 202] | 10 mg/kg | 10 mg/kg | > 1000 mg/kg |  |

| SMILES | ED50 [1, 4] | ED50 [2] | LD50 [3] | ED50 [1] |
| --- | --- | --- | --- | --- |
| CNCC1CN(c2ccc(OCc3cccc([N+](=O)[O-])c3)cc2)C(=O)O1 (stereo not shown) [compound 85] | 3 mg/kg | 2 mg/kg | 1000 mg/kg |  |
| COCC1CN(c2ccc(OCC3(C)CCCC3)cc2)C(=O)O1 (stereo not shown) [compound 186] | 3 mg/kg | 3 mg/kg | > 1000 mg/kg |  |
| COCC1CN(c2ccc(OCC3CCCC3)cc2)C(=S)O1 (stereo not shown) [compound 211] | 2 mg/kg | 1.2 mg/kg | 1000 mg/kg |  |
| COCC1CN(c2ccc(/C=C/c3cccc(C#N)c3)cc2)C(=O)O1 (stereo not shown) [compound 196] |  | 0.55 mg/kg | > 1000 mg/kg |  |
| COC[C@H]1CN(c2ccc(OCc3cccc(C#N)c3)cc2)C(=O)O1 [compound 199] | 0.31 mg/kg |  | > 1000 mg/kg |  |
| COC[C@@H]1CN(c2ccc(OCc3cccc(C#N)c3)cc2)C(=O)O1 [compound 200] | 1.7 mg/kg |  | > 1000 mg/kg |  |
| COCC1CN(c2ccc(OCC(C)=O)cc2)C(=O)O1 (stereo not shown) [compound 151] | 5.2 mg/kg | 5 mg/kg |  |  |
| COCC1CN(c2ccc(OCCC#N)cc2)C(=O)O1 (stereo not shown) [compound 52] | 1.2 mg/kg |  | > 2000 mg/kg |  |
| COCC1CN(c2ccc(OCc3ccc([N+](=O)[O-])cc3)cc2)C(=O)O1 (stereo not shown) [compound 165] | 6.8 mg/kg | 4.7 mg/kg |  |  |
| COCC1CN(c2ccc(OCc3cccc(Cl)c3)cc2)C(=O)O1 (stereo not shown) [compound 59] | 3.4 mg/kg | 3.1 mg/kg |  |  |
| CNCC1CN(c2ccc(OCc3cccc(Cl)c3)cc2)C(=O)O1 (stereo not shown) [compound 83] | 12.5 mg/kg | 6.2 mg/kg |  |  |
| CC(C)C(=O)OCC1CN(c2ccc(OCC3CCCCC3)cc2)C(=O)O1 (stereo not shown) [compound 103] | 5 mg/kg | 6 mg/kg |  |  |
| CC(=O)OCC1CN(c2ccc(OCC3CCCCC3)cc2)C(=O)O1 (stereo not shown) [compound 21] | 2.1 mg/kg | 3.5 mg/kg |  |  |
| OCC1CN(c2ccc(OCc3cccc(F)c3)cc2)C(=S)O1 (stereo not shown) [compound 177] | 8 mg/kg | 15.5 mg/kg |  |  |
| CCCCCCCCC(=O)OCC1CN(c2ccc(OCc3cccc(F)c3)cc2)C(=O)O1 (stereo not shown) [compound 131] | 12 mg/kg | 31 mg/kg |  |  |
| N#Cc1cccc(COc2ccc(N3CC(CO)OC3=S)cc2)c1 (stereo not shown) [compound 97] | 3.9 mg/kg | 3.2 mg/kg |  |  |
| CCCCCCCCC(=O)OCC1CN(c2ccc(OCc3cccc([N+](=O)[O-])c3)cc2)C(=O)O1 (stereo not shown) [compound 42] | 1.25 mg/kg | 2 mg/kg |  |  |
| CC(=O)OCC1CN(c2ccc(OCc3cccc([N+](=O)[O-])c3)cc2)C(=S)O1 (stereo not shown) [compound 117] | 1.2 mg/kg | 1.5 mg/kg |  |  |
| CC(=O)OCC1CN(c2ccc(OCC#N)cc2)C(=O)O1 (stereo not shown) [compound 1] | 12.5 mg/kg | 6.2 mg/kg |  |  |
| CC(C)OCC1CN(c2ccc(OCc3cccc([N+](=O)[O-])c3)cc2)C(=O)O1 (stereo not shown) [compound 62] | 3.6 mg/kg | 2.4 mg/kg |  |  |
| CCCCCCCCC(=O)OCC1CN(c2ccc(OCC3CCCC3)cc2)C(=O)O1 (stereo not shown) [compound 19] | 5.5 mg/kg | 3.5 mg/kg |  |  |
| COCC1CN(c2ccc(OCc3cccc(C(F)(F)F)c3)cc2)C(=O)O1 (stereo not shown) [compound 66] | 4.7 mg/kg | 6 mg/kg |  |  |
| COCC1CN(c2ccc(OCC3CCCCC3)cc2)C(=O)O1 (stereo not shown) [compound 55] | 0.6 mg/kg | 1.1 mg/kg |  |  |
| O=C(OCC1CN(c2ccc(OCc3cccc([N+](=O)[O-])c3)cc2)C(=O)O1)c1ccccc1 (stereo not shown) [compound 43] | 15 mg/kg | 17.5 mg/kg |  |  |
| CCCOCC1CN(c2ccc(OCc3cccc(Cl)c3)cc2)C(=O)O1 (stereo not shown) [compound 153] | 3.8 mg/kg | 4 mg/kg |  |  |
| C=CCOCC1CN(c2ccc(OCc3cccc([N+](=O)[O-])c3)cc2)C(=O)O1 (stereo not shown) [compound 71] | 1 mg/kg | 0.8 mg/kg |  |  |
